Experimental data as given in patent US8389739B1, “Modulators of retinoid-related orphan receptor gamma” (Orphagen Pharmaceuticals, priority 2006, dated 2013).

Tests used:
hPPARδ = molecular target: T1, hPPARδ (Homo sapiens, UniProt Q03181); assay: Crossreactive receptor transcriptional assay (Gal4 hybrid); type: cell-based
T1 construct: 138-441; expressed in transfected cells; host or cells: CHO cells, transient transfection
T1 sequence (Q03181 138-441): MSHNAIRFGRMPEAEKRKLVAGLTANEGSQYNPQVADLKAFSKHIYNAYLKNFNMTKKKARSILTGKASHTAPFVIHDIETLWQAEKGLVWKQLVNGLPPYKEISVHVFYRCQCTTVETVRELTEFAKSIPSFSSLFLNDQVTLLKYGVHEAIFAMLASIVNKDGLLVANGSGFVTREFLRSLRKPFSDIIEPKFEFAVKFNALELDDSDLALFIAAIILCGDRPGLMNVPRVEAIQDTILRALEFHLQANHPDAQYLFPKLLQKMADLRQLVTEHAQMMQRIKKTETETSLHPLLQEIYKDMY
Protocol: A firefly luciferase reporter gene for Gal4 DBD hybrid receptors, such as Gal4-RORγ, contains five copies of the Gal4 17-mer response element in its promoter and the coding sequence for firefly luciferase (pG5-luc, Promega). CHO (Chinese Hamster Ovary) cells were cultured in Ham's F12 medium supplemented with 10% fetal calf serum (Gemini Biologicals), 10 μg/ml penicillin and streptomycin, and were maintained in a humidified 37° C. incubator (Thermo Electron, Steri-Cycle) with 5% CO2. 24 hours before transfection, cells were plated in T175 flasks (5×10^6 cells/flask) or T75 flasks (1.7×10^6 cells/flask). Transient transfection of CHO cells was performed using TransIT-CHO reagents (Minis, Madison, Wis.) with a mixing ratio of 2:6:1 between plasmid DNA (in μg), TransIT-CHO (in μl) and CHO-mojo (in μl).
Plates are maintained at 37° C. in a humidified atmosphere with 7% CO2 overnight. Four (4) hours after cell seeding, compounds dissolved in DMSO at 10 mM were added to cells at final concentrations of 20 micromolar (μM) to 20 nanomolar (nM) in 0.2% DMSO in triplicate plates. Approximately 40 hours later, cytotoxicity in the assay well was characterized by addition of the dye resazurin (O'Brien, Wilson et al. 2000) to a final concentration of 3 μM. […] Percent viability was determined as 2 hour fluorescence, minus background at t=0 hours, normalized to DMSO controls. For detection of luciferase activity, media was removed from plates after the measurement of resazurin conversion, and SteadyLite luciferase reagent (Perkin-Elmer) was added (30 μl/well). Luminescence is detected with a Victor 2-V plate reader (Perkin-Elmer) and normalized to luciferase activity of DMSO control wells alone.

liver triglycerides = assay: Liver triglycerides after oral dosing in C57BL/6 mice; type: in vivo; conditions: Dex 12.5 mg/kg once 2 days before necropsy
Protocol: […] A small piece of the liver (˜200 mg) was weighed and extracted to determine triglyceride content. Glycerol was liberated from liver triglycerides by hydrolysis in base. The liver fragment was incubated overnight at 55° C. in 0.35 mls of ethanolic KOH (2 parts EtOH: 1 part 30% KOH) in a closed tube. A solution of 50% ethanol in water was added to bring the volume of each tube to 1.0 ml. The solution was cleared of debris by centrifugation, and the resulting supernatant increased to 1.2 ml with further addition of 50% ethanol. Aqueous 1 M MgCl2 (215 μl) was added to 200 μl of the supernatant, and the mixture was cleared by centrifugation again after standing 10 min on ice. Glycerol levels were measured with the Sigma Free Glycerol Reagent (Sigma-Aldrich, St. Louis, Mo.) according to the manufacturer's instructions. The triglyceride concentration (in milligrams per gram of liver wet weight) was determined by assuming average molecular weight of 1000 daltons for each molecule of triglyceride.

thymocytes = assay: Thymus weight and thymocyte subpopulations after oral dosing in C57BL/6 mice; type: in vivo
Protocol: In addition, the total number and the fraction of the major thymocyte subpopulations including CD4^+CD8^+ (DP), CD4^+CD8^- (SP4^+) and CD4^-CD8^+ (SP8^+) were measured by cell surface staining followed by FACS analysis. […] The volume of cells was adjusted to 8 mls. Debris from the thymus was allowed to settle, and a 200 μl aliquot of cells was incubated with fluorescent antibodies to CD4 and CD8 for 15 minutes at room temperature. […] Before analytical flow cytometry was carried out (FACS Calibur, Becton Dickinson), Caltag counting beads (from Invitrogen) were added to allow absolute quantitation of cell number. Thymus subpopulations were determined after gating for live cells. […] Dexamethasone reproducibly induces rapid apoptosis of DP thymocytes and reduction of thymic mass ([…], Drupt et al. 2000; Zubkova, Mostowski et al. 2005).

[1] = test system: TH1 cell differentiation from naïve CD4+ T cells; assay: Differentiation of naïve CD4+ T cells with IL-12 (Th-1 protocol), IFN-γ staining by FACS; type: cell-based, mouse; conditions: Table 8; 10 ng/ml; naïve CD4 cells, 5 days; mean ±SD; no cytokine 0.21
[2] = Dex 12.5 mg/kg once 2 days before necropsy

Work on `CC(C)(Oc1ccc(CCNC(=O)c2ccc(Cl)cc2)cc1)C(=O)O` [Bezafibrate, bezafibrate, reference compound] yielded an EC50 (hPPARδ) of over 20 µM.

In the case of `C[C@@H]1C[C@H]2[C@@H]3CCC4=CC(=O)C=C[C@]4(C)[C@@]3(F)[C@@H](O)C[C@]2(C)[C@@]1(O)C(=O)CO` [Dexamethasone, dexamethasone], the “Liver triglycerides” value (liver triglycerides) is reported as 35.3 ± 8.2 mg/g, the “Frequency of DP (% of total cells)” value (thymocytes; [2]) is reported as 4.2 ± 2.9% and the “Thymus weight” value (thymocytes; [2]) is reported as 49.7 µg. For the same molecule, the “Total cells per thymus (×10^−6) DP” value (thymocytes; [2]) was 1.0 ×10^−6, the “Total cells per thymus (×10^−6) SP4” value (thymocytes; [2]) was 3.9 ×10^−6 and the “Total cells per thymus (×10^−6) SP8” value (thymocytes; [2]) was 1.2 ×10^−6. The “effect on DP thymocytes, in words” value (thymocytes; dexamethasone positive control, once two days before sacrifice) was “virtually total depletion of DP thymocytes”.

B1: IL-12: exogenous cytokine, stimulates TH1 differentiation (protein, UniProt P29459 23-219; P29460 23-328, looked up)
Interleukin-12 subunit alpha: RNLPVATPDPGMFPCLHHSQNLLRAVSNMLQKARQTLEFYPCTSEEIDHEDITKDKTSTVEACLPLELTKNESCLNSRETSFITNGSCLASRKTSFMMALCLSSIYEDLKMYQVEFKTMNAKLLMDPKRQIFLDQNMLAVIDELMQALNFNSETVPQKSSLEEPDFYKTKIKLCILLHAFRIRAVTIDRVMSYLNAS
Interleukin-12 subunit beta: IWELKKDVYVVELDWYPDAPGEMVVLTCDTPEEDGITWTLDQSSEVLGSGKTLTIQVKEFGDAGQYTCHKGGEVLSHSLLLLHKKEDGIWSTDILKDQKEPKNKTFLRCEAKNYSGRFTCWWLTTISTDLTFSVKSSRGSSDPQGVTCGAATLSAERVRGDNKEYEYSVECQEDSACPAAEESLPIEVMVDAVHKLKYENYTSSFFIRDIIKPDPPKNLQLKPLKNSRQVEVSWEYPDTWSTPHSYFSLTFCVQVQGKSKREKKDRVFTDKTSATVICRKNASISVRAQDRYYSSSWSEWASVPCS
With B1 the “IL-17 (%)” value [1] was 0.09 ± 0.01%.
